In patent US20090062251A1, “Novel Compounds 002” (ASTRAZENECA AB, priority 2007, published 2009):

Key:
[1] = target: T1, Human CB1 receptor (hCB1) (Homo sapiens, UniProt P21554); assay: hCB1 receptor binding (3H-CP55,940 displacement); conditions: hCB1 membranes, Ki=IC50/(1+[rad]/Kd)
T1 construct: purchased Receptor Biology
Experimental: hCB1 and hCB2 Receptor Binding
Human CB1 receptor from Receptor Biology (hCB1) or human CB2 receptor from BioSignal (hCB2) membranes are thawed at 37° C., passed 3 times through a 25-gauge blunt-end needle, diluted in the cannabinoid binding buffer (50 mM Tris, 2.5 mM EDTA, 5 mM MgCl2, and 0.5 mg/mL BSA fatty acid free, pH 7.4) and aliquots containing the appropriate amount of protein are distributed in 96-well plates. […] The total and non-specific binding are determined in the absence and presence of 0.2 μM of HU210 respectively. The plates are vortexed and incubated for 60 minutes at room temperature, filtered through Unifilters GF/B (presoaked in 0.1% polyethyleneimine) with the Tomtec or Packard harvester using 3 mL of wash buffer (50 mM Tris, 5 mM MgCl2, 0.5 mg BSA pH 7.0). The filters are dried for 1 hour at 55° C. The radioactivity (cpm) is counted in a TopCount (Packard) after adding 65 μl/well of MS-20 scintillation liquid.
Based on the above assays, the dissociation constant (Ki) for a particular compound of the invention towards a particular receptor is determined using the following equation:
[rad] is a standard or reference radioactive ligand concentration at that moment; and
Kd is the dissociation constant of the radioactive ligand towards the particular receptor.

[2] = target: T1, Human CB1 receptor (hCB1); assay: hCB1 GTPγS binding; assay type: biochemical; conditions: for EC50: hCB1 membranes, GTPγ35S, 10-point dose-response; for Emax: maximal stimulated binding determined with 10 μM Win 55,212-2
Experimental: hCB1 and hCB2 GTPγS Binding
Human CB1 receptor from Receptor Biology (hCB1) or human CB2 receptor membranes (BioSignal) are thawed at 37° C., passed 3 times through a 25-gauge blunt-end needle and diluted in the GTPγS binding buffer (50 mM Hepes, 20 mM NaOH, 100 mM NaCl, 1 mM EDTA, 5 mM MgCl2, pH 7.4, 0.1% BSA). […] The basal and maximal stimulated binding is determined in absence and presence of 1 μM (hCB2) or 10 μM (hCB1) Win 55, 212-2 respectively. The membranes are pre-incubated for 5 minutes with 56.25 μM (hCB2) or 112.5 μM (hCB1) GDP prior to distribution in plates (15 μM (hCB2) or 30 μM (hCB1) GDP final). The plates are vortexed and incubated for 60 minutes at room temperature, filtered on Unifilters GF/B (presoaked in water) with the Tomtec or Packard harvester using 3 ml of wash buffer (50 mM Tris, 5 mM MgCl2, 50 mM NaCl, pH 7.0). The filters are dried for 1 hour at 55° C. The radioactivity (cpm) is counted in a TopCount (Packard) after adding 65 μl/well of MS-20 scintillation liquid. Antagonist reversal studies are done in the same way except that (a) an agonist dose-response curve is done in the presence of a constant concentration of antagonist, or (b) an antagonist dose-response curve is done in the presence of a constant concentration of agonist.

T1 sequence (P21554 whole entry): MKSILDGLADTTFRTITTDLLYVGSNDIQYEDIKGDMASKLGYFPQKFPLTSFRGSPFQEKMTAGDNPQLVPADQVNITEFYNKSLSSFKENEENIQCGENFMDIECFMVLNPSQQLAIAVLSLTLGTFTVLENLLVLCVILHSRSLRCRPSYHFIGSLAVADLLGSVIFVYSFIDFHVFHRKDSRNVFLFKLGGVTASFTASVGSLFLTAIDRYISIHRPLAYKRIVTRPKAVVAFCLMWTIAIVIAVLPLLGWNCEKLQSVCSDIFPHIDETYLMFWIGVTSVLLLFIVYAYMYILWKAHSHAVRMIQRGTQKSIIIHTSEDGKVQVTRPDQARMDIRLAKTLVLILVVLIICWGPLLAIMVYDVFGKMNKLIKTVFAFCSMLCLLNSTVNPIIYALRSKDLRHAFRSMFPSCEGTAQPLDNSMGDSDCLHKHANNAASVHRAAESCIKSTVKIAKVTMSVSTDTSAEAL

| SMILES | Ki [1] | EC50 [2] | Emax [2] |
| --- | --- | --- | --- |
| CCS(=O)(=O)n1c2c(c3cc(C(=O)N4CCC(C)CC4)ccc31)CC(C1CCCCC1)CC2 (stereo not drawn) [(6-cyclohexyl-9-ethylsulfonyl-5,6,7,8-tetrahydrocarbazol-3-yl)-(4-methyl-1-piperidyl)methanone] | 15.2 nM | 20 nM | 107% |
| CC1CCN(C(=O)c2ccc3c(c2)c2c(n3C)CCC(C3CCCCC3)C2)CC1 (stereo not drawn) [(6-cyclohexyl-9-methyl-5,6,7,8-tetrahydrocarbazol-3-yl)-(4-methyl-1-piperidyl)methanone] | 29.5 nM | 65.1 nM | 106% |
| CC1CCN(C(=O)c2ccc3c(c2)c2c(n3S(C)(=O)=O)CCC(C3CCCCC3)C2)CC1 (stereo not drawn) [(6-cyclohexyl-9-methylsulfonyl-5,6,7,8-tetrahydrocarbazol-3-yl)-(4-methyl-1-piperidyl)methanone] | 75.3 nM | 277 nM | 89% |
| CN(CCCC(=O)NCCO)C(=O)c1ccc2c(c1)c1c(n2C)CC[C@@H](C2CCOCC2)C1 [(R)—N-(4-(2-Hydroxyethylamino)-4-oxobutyl)-N,9-dimethyl-3-(tetrahydro-2H-pyran-4-yl)-2,3,4,9-tetrahydro-1H-carbazole-6-carboxamide] | 69 nM | 173 nM | 120% |
| CN(C(=O)c1ccc2c(c1)c1c(n2C)CC[C@@H](C2CCOCC2)C1)[C@H](CO)CCC(=O)NCCF [(R)—N-((S)-5-(2-Fluoroethylamino)-1-hydroxy-5-oxopentan-2-yl)-N,9-dimethyl-3-(tetrahydro-2H-pyran-4-yl)-2,3,4,9-tetrahydro-1H-carbazole-6-carboxamide] | 26 nM | 61 nM | 118% |
| CCNC(=O)CC[C@@H](CO)N(C)C(=O)c1ccc2c(c1)c1c(n2C)CC[C@@H](C2CCOCC2)C1 [(R)—N-((S)-5-(Ethylamino)-1-hydroxy-5-oxopentan-2-yl)-N,9-dimethyl-3-(tetrahydro-2H-pyran-4-yl)-2,3,4,9-tetrahydro-1H-carbazole-6-carboxamide] | 36 nM | 79 nM | 126% |
| CCN(CC(=O)NCC(F)F)C(=O)c1ccc2c(c1)c1c(n2C)CCC(C2CCOCC2)C1 (stereo not drawn) [N-(2,2-difluoroethylcarbamoylmethyl)-N-ethyl-9-methyl-6-(oxan-4-yl)-5,6,7,8-tetrahydrocarbazole-3-carboxamide] | 17.1 nM | 39.9 nM | 116% |
| CCN(CC(=O)NCCC#N)C(=O)c1ccc2c(c1)c1c(n2S(=O)(=O)CC)CCC(C2CCOCC2)C1 (stereo not drawn) [N-(2-cyanoethylcarbamoylmethyl)-N-ethyl-9-ethylsulfonyl-6-(oxan-4-yl)-5,6,7,8-tetrahydrocarbazole-3-carboxamide] | 115 nM | 120 nM | 115% |
| Cn1c2c(c3cc(C(=O)N4CCC(C(=O)NCCF)C4)ccc31)CC(C1CCOCC1)CC2 (stereo not drawn) [N-(2-fluoroethyl)-1-[9-methyl-6-(oxan-4-yl)5,6,7,8-tetrahydrocarbazole-3-carbonyl]pyrrolidine-3-carboxamide] | 126 nM | 263 nM | 121% |
| CN(CC(=O)NCCF)C(=O)c1ccc2c(c1)c1c(n2C)CCC(C2CCOCC2)C1 (stereo not drawn) [N-(2-fluoroethylcarbamoylmethyl)-N,9-dimethyl-6-(oxan-4-yl)-5,6,7,8-tetrahydrocarbazole-3-carboxamide] | 291 nM | 721 nM | 110% |
| CCN(CC(=O)NC1CC1)C(=O)c1ccc2c(c1)c1c(n2CC2CC2)CCC(C2CCOCC2)C1 (stereo not drawn) [N-(cyclopropylcarbamoylmethyl)-9-(cyclopropylmethyl)-N-ethyl-6-(oxan-4-yl)-5,6,7,8-tetrahydrocarbazole-3-carboxamide] | 21.2 nM | 34.2 nM | 91% |
| CCS(=O)(=O)n1c2c(c3cc(C(=O)N(C)CC(=O)NC4CC4)ccc31)CC(C1CCOCC1)CC2 (stereo not drawn) [N-(cyclopropylcarbamoylmethyl)-9-ethylsulfonyl-N-methyl-6-(oxan-4-yl)-5,6,7,8-tetrahydrocarbazole-3-carboxamide] | 18.1 nM | 18.8 nM | 116% |
| Cn1c2c(c3cc(C(=O)N4CCCC(NC(=O)C5CC5)C4)ccc31)CC(C1CCOCC1)CC2 (stereo not drawn) [N-[1-[9-methyl-6-(oxan-4-yl)5,6,7,8-tetrahydrocarbazole-3-carbonyl]-3-piperidyl]cyclopropanecarboxamide] | 26.7 nM | 40.6 nM | 115% |
| CCC(=O)NC1CCCN(C(=O)c2ccc3c(c2)c2c(n3C)CCC(C3CCOCC3)C2)C1 (stereo not drawn) [N-[1-[9-methyl-6-(oxan-4-yl)5,6,7,8-tetrahydrocarbazole-3-carbonyl]-3-piperidyl]propanamide] | 63.2 nM | 263 nM | 122% |
| Cn1c2c(c3cc(C(=O)N4CCC(NC(=O)C5CC5)CC4)ccc31)CC(C1CCOCC1)CC2 (stereo not drawn) [N-[1-[9-methyl-6-(oxan-4-yl)5,6,7,8-tetrahydrocarbazole-3-carbonyl]-4-piperidyl]cyclopropanecarboxamide] | > 3480 nM | > 30000 nM | > 30% |
| CN(CCN(C)C(=O)c1ccc2c(c1)c1c(n2C)CCC(C2CCOCC2)C1)C(=O)NC1CC1 (stereo not drawn) [N-[2-(cyclopropylcarbamoyl-methyl-amino)ethyl]-N,9-dimethyl-6-(oxan-4-yl)-5,6,7,8-tetrahydrocarbazole-3-carboxamide] | 77.5 nM | 468 nM | 110% |
| CN(CCN(C)C(=S)NC1CC1)C(=O)c1ccc2c(c1)c1c(n2C)CCC(C2CCOCC2)C1 (stereo not drawn) [N-[2-(cyclopropylthiocarbamoyl-methyl-amino)ethyl]-N,9-dimethyl-6-(oxan-4-yl)-5,6,7,8-tetrahydrocarbazole-3-carboxamide] | 9.9 nM | 161 nM | 106% |
| CCn1c2c(c3cc(C(=O)N(C)CCCC(=O)NCC(F)F)ccc31)CC(C1CCOCC1)CC2 (stereo not drawn) [N-[3-(2,2-difluoroethylcarbamoyl)propyl]-9-ethyl-N-methyl-6-(oxan-4-yl)-5,6,7,8-tetrahydrocarbazole-3-carboxamide] | 45.2 nM | 98.3 nM | 114% |
| CN(CCCC(=O)NCCO)C(=O)c1ccc2c(c1)c1c(n2C)CCC(C2CCOCC2)C1 (stereo not drawn) [N-[3-(2-hydroxyethylcarbamoyl)propyl]-N,9-dimethyl-6-(oxan-4-yl)-5,6,7,8-tetrahydrocarbazole-3-carboxamide] | 90.9 nM | 155 nM | 122% |
| CN(CCCC(=O)NC1CC1)C(=O)c1ccc2c(c1)c1c(n2C)CCC(C2CCOCC2)C1 (stereo not drawn) [N-[3-(cyclopropylcarbamoyl)propyl]-N,9-dimethyl-6-(oxan-4-yl)-5,6,7,8-tetrahydrocarbazole-3-carboxamide] | 7.1 nM | 16.2 nM | 113% |
| CCN(CCCC(=O)NC1CC1)C(=O)c1ccc2c(c1)c1c(n2C)CCC(C2CCOCC2)C1 (stereo not drawn) [N-[3-(cyclopropylcarbamoyl)propyl]-N-ethyl-9-methyl-6-(oxan-4-yl)-5,6,7,8-tetrahydrocarbazole-3-carboxamide] | 2.8 nM | 4.9 nM | 116% |
| CCNC(=O)CCCN(C)C(=O)c1ccc2c(c1)c1c(n2CCF)CCC(C2CCOCC2)C1 (stereo not drawn) [N-[3-(ethylcarbamoyl)propyl]-9-(2-fluoroethyl)-N-methyl-6-(oxan-4-yl)-5,6,7,8-tetrahydrocarbazole-3-carboxamide] | 237 nM | 372 nM | 109% |
| CCNC(=O)CCCN(C)C(=O)c1ccc2c(c1)c1c(n2C)CCC(C2CCOCC2)C1 (stereo not drawn) [N-[3-(ethylcarbamoyl)propyl]-N,9-dimethyl-6-(oxan-4-yl)-5,6,7,8-tetrahydrocarbazole-3-carboxamide] | 36.6 nM | 63.5 nM | 111% |
| C[C@H](C(=O)NCCF)N(C)C(=O)c1ccc2c(c1)c1c(n2C)CCC(C2CCOCC2)C1 (stereo partly drawn) [N-[(1R)-1-(2-fluoroethylcarbamoyl)ethyl]-N,9-dimethyl-6-(oxan-4-yl)-5,6,7,8-tetrahydrocarbazole-3-carboxamide] | 157 nM | 353 nM | 107% |
